Measurements as given in patent US11413328B2, “Methods for treating inflammatory conditions of the lungs” (priority 2016, dated 2022).
Bridges are numbered along the chain shown (N, C = ends). Where no end group is shown, it is not given here.

Columns and labels:
[1] = test system: murine, infection induced, severe, steroid-insensitive, neutrophilic, allergic airways disease model of asthma; assay: Airway hyper-responsiveness (Flexivent), Ovalbumin/C. muridarum steroid-insensitive asthma model; type: in vivo, BALB/c mice; details: Ova sensitized, C. muridarum infected mice; hBD-2 IN 5 mg/kg day 30, 32, 34; DEX IN 2 mg/kg day 32-34; vs Saline control
Method: (§1) Female 6-8 weeks old BALB/c mice were intraperitoneally (IP) sensitized to ovalbumin 50 μg with the adjuvant alum 1 mg in 200 μL 0.9% saline. Mice were intranasally (IN) challenged with Ova on day 12-13 and day 33-34 (10 μg in 50 μL sterile saline).

[2] = test system: murine, infection induced, severe, steroid-insensitive, neutrophilic, allergic airways disease model of asthma; assay: Differential leucocyte counts in BALF, Ovalbumin/C. muridarum steroid-insensitive asthma model; type: in vivo, BALB/c mice; details: Ova sensitized, C. muridarum infected mice, hBD-2 IN 5 mg/kg day 30, 32, 34
Method: as §1
Airway inflammation: Differential leucocyte counts were obtained from May-Grunwald Giemsa stained BALF cells, using a light microscope.

[3] = Pharmacokinetics after single oral gavage; type: in vivo, NMRI mice; details: oral 4 mg/kg in mice
Method: Pharmacokinetic study to establish pharmacokinetic profile of hBD-2 following single oral gavage of 4 mg/kg administration to NMRI mice.
21 female NMRI mice were dosed by oral gavage 5 ml/kg using a gavage tube and a 1 ml syringe according to the individual body weight obtained on the day of dosing. Urine was strived sampled at random time points by gently massaging the inguinal area of the abdomen. The first blood sample was taken using a submandibular sampling method. The second blood sample was collected from Isoflurane anaesthetized mice. Intestinal samples were taken after euthanasia. The abdomen of each mouse was opened and three sections of the intestines were sampled.

[4] = test system: murine house dust mite/Freunds complete adjuvant driven model of allergic asthma; assay: Lung histopathology (H&E/PAS), HDM asthma model (Example 3); type: in vivo, BALB/c mice; details: vs HDM challenged vehicle
Method: Treatment regime: Female 7-10 weeks old BALB/c mice randomly allocated into 4 study groups one day prior to study start were subcutaneously (SC) sensitized to house dust mite (100 μg HDM in 200 μL saline plus Freund's complete adjuvant in 0.9% saline). Mice were intranasally (IN) challenged with HDM on day 14 (HDM 25 μg in 50 μL of saline). hBD-2 was administered IN or orally (0.4 mg/kg TID IN; 0.4 mg/kg TID orally, 50 μL phosphate buffered saline) on day 14. The initial dose was administered 60 minutes prior to challenge, and the subsequent doses approximately 6 hours apart. […] Lungs from other 8 animals per group were inflated in situ with 10% buffered formalin, removed from thorax, placed individually in 10% buffered formalin, paraffin embedded in toto, sectioned and H&E/PAS stained. The paraffin blocks were retained for the IHC analysis. Cellular influx (mononuclears, eosinophils, neutrophils) was assessed semi-quantitatively on H&E stained slides separately for peri-bronchial/bronchiolar and perivascular space as follows: [table] Overall score for inflammation was calculated as sum of all individual scores.

[5] = test system: murine house dust mite/Freunds complete adjuvant driven model of allergic asthma; assay: Lung resistance and compliance after methacholine, HDM/Freunds adjuvant asthma model (Example 2); type: in vivo, BALB/c mice; details: vs HDM challenged vehicle
Method: Female 7-10 weeks old BALB/c mice were randomly allocated into 7 study groups one day prior to study start and subcutaneously (SC) sensitized to house dust mite (100 μg HDM in 200 μL saline plus Freunds complete adjuvant in 0.9% saline). Mice were then intranasally (IN) challenged with HDM on day 14 (HDM 25 μg in 50 μL of saline). […] The initial dose was administered 60 minutes prior to challenge, and the subsequent doses approximately 6 hours apart. Lung function: Starting 48 hours after HDM challenge, measurements of lung resistance and lung compliance were carried out after methacholine challenge (3.125 MCH1; 6.25 MCH2; 12.5 MCH3 and 25 mg/mL MCH4) by anaesthetized, cannulated mice using DSI's Buxco Finepoint RC system. Data are represented as airway resistance at […] and as dose responsive curves.

[6] = test system: IL-1β, TNF-α, IL-6, IL-10 and IFNγ in lung tissue homogenates; assay: Cytokine ELISA in lung tissue homogenates, HDM asthma model (Example 2); type: in vivo, BALB/c mice; details: vs HDM/vehicle
Method: Female 7-10 weeks old BALB/c mice were randomly allocated into 7 study groups one day prior to study start and subcutaneously (SC) sensitized to house dust mite (100 μg HDM in 200 μL saline plus Freunds complete adjuvant in 0.9% saline). Mice were then intranasally (IN) challenged with HDM on day 14 (HDM 25 μg in 50 μL of saline). […] The initial dose was administered 60 minutes prior to challenge, and the subsequent doses approximately 6 hours apart.
Lung sampling for cytokine analysis: After completion of every BAL, lungs were removed from the thorax, snap frozen in liquid nitrogen and stored frozen at −80 degrees Celsius until analysis of cytokine concentration of IL-1β, TNF-α, IL-6, IL-10 and IFNγ by ELISA.

[7] = test system: microbiota of the intestine; assay: 16S microbiota analysis, interventional defensin treatment in diet-induced obese mice (Example 11); type: in vivo; details: intervention
Source text: The experiment elucidates the effect of hBD2 and HD5 on the microbiota in diet-induced obese mice. A run-in period of 13 weeks where mice were fed a very HFD (60% energy from fat) preceded the intervention. Only mice meeting the criteria of a minimum of 12 gram weight gain (approximately 50% of initial bodyweight) during the run-in period were included in the final analyses. […] They were exposed to all experimental tests, but excluded from the analyses.
Before the intervention all mice were MR scanned. Cages of mice were allocated to experimental groups based on their fat mass. All subsequent measures were paired with data from the same mouse before the intervention. A LFD (low fat diet) reference group was running in parallel. As controls for the intervention 2 additional groups were included: 1 very HFD and 1 LFD. Experimental mice stayed on the very HFD during the intervention. The mice were on the experimental diet for 10 weeks. They were co-housed throughout the experiment, 4 mice per cage, 3 cages per group. All tests ran over 3 days, 1 cage per group per day.
Microbial analyses were carried out to study the microbiota of the intestine. Longitudinal 16S characterization was conducted on 4 paired samples from 60 mice, 240 samples in total. Each mouse was sampled prior to diet change, 1 week post diet change, 4 weeks post diet change and at termination, thus ensuring a thorough characterization of the faecal microbiota as a result of defensin treatment.

Which results are given for “GIGDPVTCLKSGAICHPVFCPRRYKQIGTCGLPGTKCCKKP (disulfide 8-37, 15-30, 20-38 (inferred)) [hBD-2, human beta defensin 2]”?
AHR (airway hyper-responsiveness) [1]: completely normalized; macrophages in BALF [2]: did not change; neutrophil count in BALF [2]: complete normalization; eosinophils in BALF ([2]; DEX IN 2 mg/kg day 32-34): did not change; systemic availability after oral dosing [3]: not systemically available; increase in histological inflammation of lung tissue ([4]; intranasal 0.4 mg/kg TID day 14): effectively inhibited; increase in histological inflammation of lung tissue ([4]; oral 0.4 mg/kg TID day 14): effectively inhibited; decrease of pulmonary compliance ([5]; intranasal TID on day 14): effectively inhibited; increase of airway resistance ([5]; intranasal TID on day 14): effectively inhibited; decrease of pulmonary compliance ([5]; oral 0.4 mg/kg TID on day 14): effectively inhibited; increase of airway resistance / AHR ([5]; oral, hBD-2 0.4 mg/kg TID, dexamethasone 1 mg/kg BID, day 14): effectively inhibited; IFN-γ level in lung tissue homogenates ([6]; intranasal): significant effects; TNF-α level in lung tissue homogenates ([6]; intranasal): not significantly different from the control; TNF-α level in lung tissue homogenates ([6]; oral (hBD2 0.4 mg/kg TID; dexamethasone 1 mg/kg BID)): significantly reduced; IFN-γ level in lung tissue homogenates ([6]; oral (hBD-2 0.4 mg/kg TID; dexamethasone 1 mg/kg BID)): significant effects; abundance of Alloprevotella in the colon ([7]; HD5 p<0.02): no influence; relative abundance of Bifidobacteriaceae in the small intestine ([7]; hBD2 p<0.0001): dramatically and statistically significant increased; relative abundance of Bifidobacteriaceae in the colon ([7]; p<0.04): dramatically and statistically significant increased
